The values that follow come from US9493524B2, “Methods for treatment of stroke or cerebrovascular accidents using an ETB receptor agonist” (MIDWESTERN UNIVERSITY, priority 2007, dated 2016).

SMILES strings stand for the structures.

Holding throughout (format): in vivo, Sprague-Dawley rats
For assay [1], the system named is urethane anesthetized rat. In words: Blood pressure / mean arterial pressure recording. As to conditions: BMS 5 and 15 mg/kg, i.v., BQ788 1 μg/kg; for effect of pretreatment on the effect of ET-1 on mean arterial pressure: ET-1 0.75 μg/kg, FIG. 13; for effect of pretreatment on the effect of IRL-1620 on mean arterial pressure: IRL-1620 5 μg/kg, FIG. 12. The method, then:
(§1) Male Sprague-Dawley rats weighing 323±4 grams (g) were anesthetized with urethane (ethyl carbamate, Sigma Aldrich, St. Louis, Mo.) dissolved in isotonic saline (0.9% NaCl, Hospira, Inc., Lake Forest, Ill.). The rats were administered a dose of 0.15 g per 100 g body weight via intraperitoneal (i.p.) injection.
(§2) Blood Pressure and Heart Rate: The femoral vein and artery were cannulated. The arterial cannula was connected to a Gould P23 ID pressure transducer for recording the blood pressure on a Grass P7D polygraph through a 7PI preamplifier. The heart rate was recorded through a 7P4B Grass tachograph, triggered from blood pressure signals. Drugs were administered via the venous cannula.
(§3) The rats were randomly selected for various studies. Following surgery the rats were allowed to stabilize for 30 minutes and a 15 minutes baseline recording of all parameters (blood pressure, heart rate, cerebral blood flow, and renal blood flow) was obtained prior to the administration of the pretreatment followed by IRL-1620 (Suc-[Glu 9, Ala 11,15], American Peptide Co, Inc., Sunnyville, Calif.) or ET-1 (Ala 1,3,11,15, RBI Sigma, Natick, Mass.). BQ-788, a selective endothelin B antagonist, is the sodium salt of N-cis-2,6-dimethylpiperidinocarbonyl-L-gamma-methylleucyl-D-1-methoxycarbonyl triptophanyl-DNIe (see Proc. Natl. Acad. Sci. USA, 91, pp. 4892-4896 (1994)) BMS is BMS 182, 874, which is a selective endothelin A antagonist having a structure
(§4) Group 1: Animals (n=4) were pretreated with saline 15 minutes (min) prior to administration of IRL-1620 (5 μg/kg, i.v.).
(§5) Group 2: Animals (n=4) were pretreated with BMS (5 mg/kg, i.v.) 15 min prior to administration of IRL-1620 (5 μg/kg, i.v.).
(§6) Group 3: Animals (n=4) were pretreated with BMS (15 mg/kg, i.v.) 15 min prior to administration of IRL-1620 (5 μg/kg, i.v.).
(§7) Group 4: Animals (n=4) were pretreated with BQ788 (1 μg/kg, i.v.) 15 min prior to administration of IRL-1620 (5 μg/kg, i.v.).
(§8) Group 1: Animals (n=4) were pretreated with saline 15 min prior to administration of ET-1 (0.75 μg/kg, i.v.).
(§9) Group 2: Animals (n=4) were pretreated with BMS (5 mg/kg, i.v.) 15 min prior to administration of ET-1 (0.75 μg/kg, i.v.).
(§10) Group 3: Animals (n=4) were pretreated with BMS (15 mg/kg, i.v.) 15 min prior to administration of ET-1 (0.75 μg/kg, i.v.).
(§11) Group 4: Animals (n=4) were pretreated with BQ788 (1 μg/kg, i.v.) 15 min prior to administration of ET-1 (0.75 μg/kg, i.v.).
(§12) Blood pressure, heart rate, cerebral blood perfusion, and renal blood perfusion all were recorded for 2 hours following the final injection. Blood gases were analyzed prior to administration of any drugs, and at 60 and 120 min following administration of IRL-1620 or ET-1. At the end of each experiment, the animals were euthanized with an overdose of urethane i.v. In the figures, all data values are presented as mean±SEM. One-sample t-tests and one-way ANOVAs were used to test the differences within and between the groups. A P value of P<0.05 was considered significant.

Assay [2] relates to urethane anesthetized rat. Description: Cerebral blood perfusion by Laser Doppler Flowmetry. As to conditions: for effect of pretreatment on the effect of ET-1 on cerebral blood flow: BMS 5 and 15 mg/kg, i.v., ET-1 0.75 μg/kg, FIG. 7. As for the experimental part:
as §1
Cerebral Perfusion: A burr hole was drilled into the rat skull about 2 millimeters (mm) to the left of midline. Cerebrovascular perfusion was measured via a fiber optic probe (PF407) applied to the surface of the rat brain. The probe was connected to a Periflux PF2b 4000 Laser Doppler Flowmetry unit (Perimed, Stockholm, Sweden).
as §3, §4, §5, §6, §7, §8, §9, §10, §11, §12

Assay [3] deals with urethane anesthetized rat. Description: Renal blood perfusion by Laser Doppler Flowmetry. As to conditions: BMS 5 and 15 mg/kg, i.v., BQ788 1 μg/kg; for effect of pretreatment on the effect of ET-1 on renal blood flow: ET-1 0.75 μg/kg, FIG. 10; for effect of pretreatment on the effect of IRL-1620 on renal blood flow: IRL-1620 5 μg/kg, FIG. 9. The method, then:
as §1
Renal Perfusion: The right kidney was dissected retroperitoneally. Renal perfusion was measured via a fiber optic probe (PF408) applied to the surface of the rat kidney. The probe was connected to a Periflux PF2b 4000 Laser Doppler Flowmetry unit (Perimed, Stockholm, Sweden).
as §3, §4, §5, §6, §7, §8, §9, §10, §11, §12

The subject of assay [4] is urethane anesthetized rat. Description: Heart rate recording. Particulars: IRL-1620 5 μg/kg, i.v.; for heart rate: mean±SEM, in bpm (unit assumed); for effect of pretreatment on the effect of IRL-1620 on heart rate (Table 1): BMS 5 and 15 mg/kg, BQ788. The method, then:
as §1, §2, §3, §4, §5, §6
Group 4: Animals (n=4) were pretreated with BQ788 (1 μg/kg, i.v.) 15 min prior to administration of IRL-1620 (5 μg/kg, i.v.). […]
as §12

As to `Cc1noc(NS(=O)(=O)c2cccc3c(N(C)C)cccc23)c1C` [BMS], in assay [1], the “effect of pretreatment on the effect of ET-1 on mean arterial pressure” value is recorded as “failed to alter”. In addition, the “effect of pretreatment on the effect of IRL-1620 on mean arterial pressure” value in assay [1] is listed as “transient hypotension similar to that observed in animals pretreated with saline”. Further, the “effect of pretreatment on the effect of ET-1 on cerebral blood flow” value in assay [2] (BQ788 1 μg/kg) is given as “no significant change”. Further, the “transient increase in cerebral blood flow” value in assay [2] (high dose of BMS (15 mg/kg, i.v.) pretreatment, 1 minute after administration of IRL-1620 5 μg/kg, FIG. 6) is given as 37.99%. The “effect of pretreatment on the effect of ET-1 on renal blood flow” value in assay [3] is recorded as “No pretreatment significantly altered”. For the same compound, in assay [3], the “effect of pretreatment on the effect of IRL-1620 on renal blood flow” value is “sustained decrease in renal blood flow up to 120 minutes”. In addition, the heart rate was 339 ± 6 in assay [4] (5 mg/kg BMS pretreatment, time 0 min); 365 ± 4 in assay [4] (5 mg/kg BMS pretreatment, time 1 min); 357 ± 13 in assay [4] (5 mg/kg BMS pretreatment, time 5 min); 345 ± 14 in assay [4] (5 mg/kg BMS pretreatment, time 10 min); 345 ± 14 in assay [4] (5 mg/kg BMS pretreatment, time 15 min); 356 ± 12 in assay [4] (5 mg/kg BMS pretreatment, time 30 min). Besides, the heart rate turned out to be 367 ± 14 in assay [4] (5 mg/kg BMS pretreatment, time 45 min); 370 ± 14 in assay [4] (5 mg/kg BMS pretreatment, time 60 min); 350 ± 9 in assay [4] (5 mg/kg BMS pretreatment, time 90 min); 327 ± 12 in assay [4] (5 mg/kg BMS pretreatment, time 120 min); 405 ± 11 in assay [4] (15 mg/kg BMS pretreatment, time 0 min); 425 ± 11 in assay [4] (15 mg/kg BMS pretreatment, time 1 min). In addition, the heart rate in assay [4] (15 mg/kg BMS pretreatment, time 5 min) is listed as 382 ± 13; in assay [4] (15 mg/kg BMS pretreatment, time 10 min) it was 380 ± 11; in assay [4] (15 mg/kg BMS pretreatment, time 15 min) it was 384 ± 11; in assay [4] (15 mg/kg BMS pretreatment, time 30 min), 387 ± 17; in assay [4] (15 mg/kg BMS pretreatment, time 45 min), 387 ± 21; in assay [4] (15 mg/kg BMS pretreatment, time 60 min), 395 ± 19. The heart rate in assay [4] (15 mg/kg BMS pretreatment, time 90 min) was found to be 393 ± 21; in assay [4] (15 mg/kg BMS pretreatment, time 120 min) it was 386 ± 18. Also, the “effect of pretreatment on the effect of IRL-1620 on heart rate (Table 1)” value in assay [4] is “increase”.
Consider `CCCC[C@@H](NC(=O)[C@@H](Cc1cn(C(=O)OC)c2ccccc12)NC(=O)[C@H](CC(C)(C)C)NC(=O)N1[C@H](C)CCC[C@@H]1C)C(=O)O` [BQ788, N-cis-2,6-dimethylpiperidinocarbonyl-L-gamma-methylleucyl-D-1-methoxycarbonyl triptophanyl-DNIe], for which the “effect of pretreatment on the effect of ET-1 on mean arterial pressure” value in assay [1] was “failed to alter”. Further, the “effect of pretreatment on the effect of IRL-1620 on mean arterial pressure” value in assay [1] is recorded as “effectively blocked”. Further, the “effect of pretreatment on the effect of ET-1 on cerebral blood flow” value in assay [2] (BQ788 1 μg/kg) is given as “no significant change”. Also, in assay [2] (BQ788 1 μg/kg, i.v. 15 min prior to IRL-1620 5 μg/kg, FIG. 6), the “effect of pretreatment on the effect of IRL-1620 on cerebral blood flow” value is listed as “effectively blocked”. Further, the “effect of pretreatment on the effect of ET-1 on renal blood flow” value in assay [3] is “No pretreatment significantly altered”. Also, in assay [3], the “effect of pretreatment on the effect of IRL-1620 on renal blood flow” value is recorded as “effectively blocked”. Also, the heart rate in assay [4] (1 μg/kg BQ788 pretreatment, time 0 min) is recorded as 344 ± 5; in assay [4] (1 μg/kg BQ788 pretreatment, time 1 min), 350 ± 6; in assay [4] (1 μg/kg BQ788 pretreatment, time 5 min), 345 ± 4; in assay [4] (1 μg/kg BQ788 pretreatment, time 10 min), 345 ± 4; in assay [4] (1 μg/kg BQ788 pretreatment, time 15 min) it was 347 ± 3; in assay [4] (1 μg/kg BQ788 pretreatment, time 30 min), 347 ± 4. For the same compound, the heart rate in assay [4] (1 μg/kg BQ788 pretreatment, time 45 min) came out at 350 ± 6; in assay [4] (1 μg/kg BQ788 pretreatment, time 60 min), 351 ± 9; in assay [4] (1 μg/kg BQ788 pretreatment, time 90 min), 351 ± 13; in assay [4] (1 μg/kg BQ788 pretreatment, time 120 min), 353 ± 13. Moreover, the “effect of pretreatment on the effect of IRL-1620 on heart rate (Table 1)” value in assay [4] was “effectively blocked”.
